{"source": "paper PMC6222666", "about": "“Rutacecarpine Inhibits Angiogenesis by Targeting the VEGFR2 and VEGFR2-Mediated Akt/mTOR/p70s6k Signaling Pathway” (Molecules : A Journal of Synthetic Chemistry and Natural …, 2018)", "target": "T1, VEGFR2 (vascular endothelial growth factor receptor 2) (Homo sapiens, UniProt P35968)", "T1 construct": "gene KDR", "T1 sequence (P35968 20-1356)": "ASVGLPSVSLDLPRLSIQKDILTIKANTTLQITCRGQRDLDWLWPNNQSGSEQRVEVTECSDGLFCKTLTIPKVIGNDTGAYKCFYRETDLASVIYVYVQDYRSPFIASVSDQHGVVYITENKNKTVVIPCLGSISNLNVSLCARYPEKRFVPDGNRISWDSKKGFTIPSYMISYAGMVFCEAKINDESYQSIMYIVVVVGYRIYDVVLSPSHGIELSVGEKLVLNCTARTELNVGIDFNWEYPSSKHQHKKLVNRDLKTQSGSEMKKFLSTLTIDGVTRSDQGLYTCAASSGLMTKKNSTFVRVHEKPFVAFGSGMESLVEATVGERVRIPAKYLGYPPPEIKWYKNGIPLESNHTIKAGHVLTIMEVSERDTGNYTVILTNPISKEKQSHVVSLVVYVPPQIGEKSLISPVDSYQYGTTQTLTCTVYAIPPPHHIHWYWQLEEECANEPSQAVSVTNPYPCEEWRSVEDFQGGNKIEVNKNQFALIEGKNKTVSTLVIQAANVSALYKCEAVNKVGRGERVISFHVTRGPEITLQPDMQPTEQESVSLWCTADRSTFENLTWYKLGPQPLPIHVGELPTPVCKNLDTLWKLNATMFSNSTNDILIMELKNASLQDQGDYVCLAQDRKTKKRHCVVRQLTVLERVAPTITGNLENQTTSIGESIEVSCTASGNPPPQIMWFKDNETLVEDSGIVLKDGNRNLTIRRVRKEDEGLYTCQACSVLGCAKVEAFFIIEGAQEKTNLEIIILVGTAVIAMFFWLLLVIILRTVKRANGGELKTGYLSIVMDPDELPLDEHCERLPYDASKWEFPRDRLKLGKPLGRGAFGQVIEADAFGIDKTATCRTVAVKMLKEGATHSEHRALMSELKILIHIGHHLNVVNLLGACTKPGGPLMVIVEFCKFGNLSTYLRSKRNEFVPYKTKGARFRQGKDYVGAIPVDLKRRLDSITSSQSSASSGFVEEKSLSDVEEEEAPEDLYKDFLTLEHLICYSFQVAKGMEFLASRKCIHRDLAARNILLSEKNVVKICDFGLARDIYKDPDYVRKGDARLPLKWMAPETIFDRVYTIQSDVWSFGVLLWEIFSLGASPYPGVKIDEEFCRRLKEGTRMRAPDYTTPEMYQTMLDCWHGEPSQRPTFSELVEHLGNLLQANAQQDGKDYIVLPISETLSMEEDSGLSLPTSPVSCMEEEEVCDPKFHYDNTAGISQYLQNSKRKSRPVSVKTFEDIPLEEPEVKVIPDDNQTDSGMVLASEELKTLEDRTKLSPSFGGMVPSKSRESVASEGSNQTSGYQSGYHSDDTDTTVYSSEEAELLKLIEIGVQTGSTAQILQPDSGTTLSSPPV", "assay": "SPR (Biacore T200, VEGFR2 immobilized on CM5 chip); also ELISA-based kinase assay IC50 […]", "format": "binding", "data": [{"smiles": "O=c1c2ccccc2nc2n1CCc1c-2[nH]c2ccccc12", "note": "[rutaecarpine]", "values": [{"measurement": "Kd", "value": 471, "unit": "nM"}]}]}
